Test results as given in patent US7884244B2, “Therapeutic fluoroethylcyano guanidines” (Allergan, Inc., priority 2007, dated 2011).

Experiments:
Type in all cases: cell-based
alpha2A receptor = biological target: T1, alpha2A receptor (Homo sapiens, UniProt P08913); assay: Receptor Selection and Amplification Technology (RSAT) assay, alpha2A; details: RSAT, transfected NIH-3T3 cells with Gq/i5; not active = not active at concentrations less than 10 micromolar
T1 construct: expressed in transfected cells; host or cells: NIH-3T3 cells
T1 sequence (P08913 1-465): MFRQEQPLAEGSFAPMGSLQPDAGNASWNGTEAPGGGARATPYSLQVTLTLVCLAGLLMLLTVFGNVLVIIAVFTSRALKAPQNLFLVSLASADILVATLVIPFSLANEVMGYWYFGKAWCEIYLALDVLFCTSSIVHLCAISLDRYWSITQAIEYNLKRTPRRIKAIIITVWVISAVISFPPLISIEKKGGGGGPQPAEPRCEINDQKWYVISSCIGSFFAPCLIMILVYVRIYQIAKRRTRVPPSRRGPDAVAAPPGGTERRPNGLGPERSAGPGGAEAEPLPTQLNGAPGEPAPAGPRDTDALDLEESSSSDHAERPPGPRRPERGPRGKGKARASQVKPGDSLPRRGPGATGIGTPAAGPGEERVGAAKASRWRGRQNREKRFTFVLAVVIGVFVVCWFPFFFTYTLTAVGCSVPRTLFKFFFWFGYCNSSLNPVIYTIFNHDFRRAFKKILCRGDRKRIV
Description: (§1) The RSAT assay measures a receptor-mediated loss of contact inhibition that results in selective proliferation of receptor-containing cells in a mixed population of confluent cells. The increase in cell number is assessed with an appropriate transfected marker gene such as […]-galactosidase, the activity of which can be easily measured in a 96-well format. Receptors that activate the G protein, Gq, elicit this response. Alpha2 receptors, which normally couple to Gi, activate the RSAT response when coexpressed with a hybrid Gq protein that has a Gi receptor recognition domain, called Gq/i5.
(§2) NIH-3T3 cells are plated at a density of 2×10^6 cells in 15 cm dishes and maintained in Dulbecco's modified Eagle's medium supplemented with 10% calf serum. One day later, cells are cotransfected by calcium phosphate precipitation with mammalian expression plasmids encoding p-SV-[…]-galactosidase (5-10 μg), receptor (1-2 μg) and G protein (1-2 μg). 40 μg salmon sperm DNA may also be included in the transfection mixture. Fresh media is added on the following day and 1-2 days later, cells are harvested and frozen in 50 assay aliquots. Cells are thawed and 100 μl added to 100 μl aliquots of various concentrations of drugs in triplicate in 96-well dishes. Incubations continue 72-96 hr at 37° C. After washing with phosphate-buffered saline, […]-galactosidase enzyme activity is determined by adding 200 μl of the chromogenic substrate (consisting of 3.5 mM o-nitrophenyl-[…]-D-galactopyranoside and 0.5% nonidet P-40 in phosphate buffered saline), incubating overnight at 30° C. and measuring optical density at 420 nm. The absorbance is a measure of enzyme activity, which depends on cell number and reflects a receptor-mediated cell proliferation. The efficacy or intrinsic activity is calculated as a ratio of the maximal effect of the drug to the maximal effect of a standard full agonist for each receptor subtype. Brimonidine, also called UK14304, the chemical structure of which is shown below, is used as the standard agonist for the alpha2A, alpha2B and alpha2C receptors. The EC50 is the concentration at which the drug effect is half of its maximal effect.
(§3) The results of the RSAT assay with several exemplary compounds of the invention are disclosed in Table 1 above together with the chemical formulas of these exemplary compounds. EC50 values are nanomolar. NA stands for “not active” at concentrations less than 10 micromolar. IA stands for “intrinsic activity.”

alpha2B receptor = biological target: T2, alpha2B receptor (Homo sapiens, UniProt P18089); assay: Receptor Selection and Amplification Technology (RSAT) assay, alpha2B; details: for EC50: read-out: Alpha 2B EC50; for Alpha 2B IA (intrinsic activity): ratio of maximal effect of drug to maximal effect of standard full agonist brimonidine (UK14304)
T2 construct: expressed in transfected cells; host or cells: NIH-3T3 cells
T2 sequence (P18089 1-450): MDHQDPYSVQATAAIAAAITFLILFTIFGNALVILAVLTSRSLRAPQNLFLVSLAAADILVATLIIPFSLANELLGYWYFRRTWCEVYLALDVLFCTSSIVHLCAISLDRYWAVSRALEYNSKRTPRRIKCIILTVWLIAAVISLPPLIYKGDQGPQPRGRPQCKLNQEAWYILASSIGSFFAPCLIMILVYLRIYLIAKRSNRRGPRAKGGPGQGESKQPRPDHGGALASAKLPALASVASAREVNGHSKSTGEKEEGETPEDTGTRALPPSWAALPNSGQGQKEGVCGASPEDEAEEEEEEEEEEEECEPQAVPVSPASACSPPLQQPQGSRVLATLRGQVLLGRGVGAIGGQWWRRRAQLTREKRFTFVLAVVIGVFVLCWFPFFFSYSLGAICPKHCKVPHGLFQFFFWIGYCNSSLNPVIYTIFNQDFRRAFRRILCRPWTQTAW
Description: as §1, §2, §3

alpha2C receptor = biological target: T3, alpha2C receptor (Homo sapiens, UniProt P18825); assay: Receptor Selection and Amplification Technology (RSAT) assay, alpha2C; details: for EC50 / Alpha 2C EC50: RSAT, transfected NIH-3T3 cells with Gq/i5, not active = not active at concentrations less than 10 micromolar; for EC50: read-out: Alpha 2C EC50; for Alpha 2C IA (intrinsic activity): ratio of maximal effect of drug to maximal effect of standard full agonist brimonidine (UK14304)
T3 construct: expressed in transfected cells; host or cells: NIH-3T3 cells
T3 sequence (P18825 1-462): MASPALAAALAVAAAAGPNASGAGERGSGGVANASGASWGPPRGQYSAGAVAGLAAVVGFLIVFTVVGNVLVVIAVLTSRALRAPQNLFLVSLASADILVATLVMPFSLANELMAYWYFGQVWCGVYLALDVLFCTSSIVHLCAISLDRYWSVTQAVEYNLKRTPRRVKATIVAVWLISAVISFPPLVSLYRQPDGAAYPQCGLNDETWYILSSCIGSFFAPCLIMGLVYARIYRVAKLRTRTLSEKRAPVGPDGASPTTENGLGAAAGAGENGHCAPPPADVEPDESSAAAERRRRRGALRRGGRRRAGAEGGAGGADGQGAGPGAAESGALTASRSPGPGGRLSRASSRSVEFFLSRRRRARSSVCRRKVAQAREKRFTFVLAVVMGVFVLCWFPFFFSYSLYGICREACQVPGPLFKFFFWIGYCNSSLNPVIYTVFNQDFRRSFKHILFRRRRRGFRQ
Description: as §1, §2, §3

[1] = RSAT, transfected NIH-3T3 cells with Gq/i5, not active = not active at concentrations less than 10 micromolar

Row | Compound | Alpha 2A EC50 (alpha2A receptor) | EC50 (alpha2B receptor; [1]) | Alpha 2B IA (intrinsic activity) (alpha2B receptor) | EC50 (alpha2C receptor) | Alpha 2C IA (intrinsic activity) (alpha2C receptor) | Alpha 2C EC50 (alpha2C receptor) | Alpha 2B EC50 (alpha2B receptor; [1])
1 | N#C/N=C(/NCCF)NCc1cccc(Br)c1 | not active | 1450 nM | 0.82 | 2640 nM | 0.32 | – | –
2 | N#C/N=C(/NCCF)NC1Cc2ccccc2C1 | not active | 783 nM | 0.35 | – | – | not active | –
3 | N#C/N=C(/NCCF)NCc1cccc2c1OCC2 | not active | 341 nM | 0.87 | 358 nM | 0.58 | – | –
4 | Cc1cccc2c1CCC2N/C(=N\C#N)NCCF (centres unmarked) | not active | 73.9 nM | 0.95 | 914 nM | 0.51 | – | –
5 | N#C/N=C(/NCCF)NC1CCc2ccccc21 (centres unmarked) | not active | 417 nM | 0.47 | 1780 nM | 0.33 | – | –
6 | N#C/N=C(/NCCF)NC1CCc2c(Br)cccc21 (centres unmarked) | not active | 2570 nM | 0.74 | – | – | not active | –
7 | N#C/N=C(/NCCF)N[C@H]1CCc2ccccc21 | not active | 176 nM | 0.92 | – | – | not active | –
8 | N#C/N=C(/NCCF)NC1CCc2c(Cl)cccc21 (centres unmarked) | not active | 988 nM | 0.3 | – | – | not active | –
9 | N#C/N=C(/NCCF)NC1CCc2c(F)cccc21 (centres unmarked) | not active | 282 nM | 0.36 | – | – | not active | –
10 | Cc1cccc(CN/C(=N/C#N)NCCF)c1Cl | not active | 78.9 nM | 0.93 | 472 nM | 0.84 | – | –
11 | N#C/N=C(\NCCF)NC1CCc2ccc(F)cc21 (centres unmarked) | not active | 167 nM | 0.42 | 376 nM | 0.4 | – | –
12 | N#C/N=C(\NCCF)NC1CCc2ccc(Cl)cc21 (centres unmarked) | not active | 232 nM | 0.31 | 946 nM | 0.36 | – | –
13 | Cc1ccc2c(c1)C(N/C(=N\C#N)NCCF)CC2 (centres unmarked) | not active | 518 nM | 0.34 | – | – | not active | –
14 | Cc1cccc2c1CCCC2N/C(=N\C#N)NCCF (centres unmarked) | not active | 94.3 nM | 1.06 | 1480 nM | 0.41 | – | –
15 | N#C/N=C(/NCCF)NC1CCCc2c(Cl)cccc21 (centres unmarked) | not active | 296 nM | 0.37 | – | – | not active | –
16 | CCc1cccc2c1CCCC2N/C(=N\C#N)NCCF (centres unmarked) | not active | – | 0.35 | – | – | not active | high
17 | N#C/N=C(/NCCF)NC1CCCc2c(F)cccc21 (centres unmarked) | not active | 231 nM | 0.69 | 1970 nM | 0.42 | – | –
18 | CCc1cccc2c1CCC2N/C(=N\C#N)NCCF (centres unmarked) | not active | 1040 nM | 0.59 | – | – | not active | –
19 | N#C/N=C(/NCCF)NC1CCc2cccc(Br)c21 (centres unmarked) | not active | 941 nM | 0.85 | – | – | not active | –
20 | N#C/N=C(\NCCF)NC1CCc2cccc(F)c21 (centres unmarked) | not active | 475 nM | 0.65 | – | – | not active | –
21 | N#C/N=C(\NCCF)NC1CCc2cccc(Cl)c21 (centres unmarked) | not active | 642 nM | 0.7 | – | – | not active | –
22 | N#C/N=C(\NCCF)NC1CCc2ccc(F)c(F)c21 (centres unmarked) | not active | 560 nM | 0.5 | – | – | not active | –
23 | N#C/N=C(\NCCF)NC(Cc1ccccc1)c1ccccc1 (centres unmarked) | not active | 98.6 nM | 0.73 | – | – | not active | –
